Assay results as given in patent publication US20070059720A9 (priority 2004, published 2007).

Assays:
[1] = tested on: MCF-7 vector control cells; assay: Anchorage-independent soft agar colony formation, MCF-7 vector control cells; format: cell-based, human; settings: MCF-7 vector control cells; 1 nM estradiol or 100 nM 4-OH-Tam; 14 days
Method: Cells were starved for 2 days in PRF MEM (InVitrogen) supplemented with 5% fetal bovine serum (FBS, Summit Biotechnology, Fort Collins, Colo.), 6 ng/ml insulin, 200 units/ml penicillin, and 200 μg/ml streptomycin. Soft agar assays were performed in sixwell plates. Into each well, 1.5 ml of prewarmed (50° C.) 0.7% SeaPlaque agarose (FMC, Rockland, Me.) was added and dissolved in PRF MEM supplemented with 5% charcoal stripped FBS (Summit, Fort Collins, Colo.) to serve as the bottom layer, and allowed to solidify at 4° C. until to use. 0.5×10^4 cells as a single cell suspension were suspended in prewarmed (37° C.) of the same media, 4 ml of 0.5% SeaPlaque agarose was then added, and this suspension then plated as the top layer by adding it dropwise to the solidified bottom layer plates. Plates were cooled for 2 hours, and then transferred to a 37° C. humidified incubator. Two days after plating, media containing control vehicle, 1 nM estradiol, 100 nM 4-OH-Tam, 100 nM OHT plus 10 nM ICI, or 100 nM OHT plus 20 nM […] was added to the top cell layer, and the appropriate media was replaced every two days. After 14 days, the colonies were fixed, and the colony number of colonies >50 cells from quadruplicate assays were then counted. The data shown is the mean colony number of four plates, and is representative of two independent experiments.
In pancreatic cells, ectopic expression of MKP3 is reported to result in a suppression of cell growth (Fuqua et al., 2003). Thus, the growth characteristics of the MCF-7 stable MKP3 transfectants under different hormonal conditions were investigated using anchorageindependent soft agar assay (FIG. 4B).

MCF-7-MKP3 xenografts = assay: Xenograft growth of MCF-7 vector control and MKP3-transfected cells in athymic nude mice; format: in vivo
Method: MCF-7 vector control and MKP3-transfected cells were established as xenografts in ovariectomized 5- to 6-week-old BALB/c athymic nude mice (Harlan Sprague Dawley, Madison, Wis.) supplemented with 0.25-mg 21-day-release E2 pellets (Innovative Research, Sarasota, Fla.) by inoculating the mice subcutaneously with 5×10^6 cells, as described previously (Osborne et al., 1995). […] Tumor growth was assessed and tumor volumes were measured as described previously (Osborne et al., 1995). Mice were anesthetized with isoflurane before tumor removal; tumor tissues were kept at […] for later analyses. Animal care was in accordance with institutional guidelines.
To analyze the endocrine sensitivity of the MKP3-overexpressing cells in more detail in vivo, the ability of MCF-7-vector control 1 and MCF-7-MKP3-2 transfectants to form tumors in athymic mice was examined. Xenografts were established in ovariectomized mice supplemented with estrogen for 21 days. […] This was examined by fitting the data in an exponential growth model, and testing whether growth rates were different between the groups; the analyses were done separately for estrogen-treated (FIG. 4C, left panel) and Tam-treated animals (right panel). There was no difference in the estrogen-stimulated growth of the MCF-7-vector control and MKP3-overexpressing cells (P=0.52).

ERK 1,2 MAPK = assay: Immunoblot of phospho-MAPK in MCF-7 transfectants; format: cell-based, human; settings: MKP3-overexpressing MCF-7 cells; 2 hours, 100 nM
Method: (§1) Cells grown in 100 mm dishes were starved in phenol red-free (PRF), serum-free MEM (Specialty Media, Phillipsburg, N.J.) for 48 hours, and were then treated for 2 hours with vehicle (ethanol), estrogen (100 nM, 20), or OHT (100 nM). After treatment, cells were rinsed twice with ice-cold phosphate-buffered saline (PBS) and were then lysed immediately with 200 μl of cell lysis buffer (20 mM Tris HCl, pH 7.4, 150 mM NaCl, 1 mM B-glycerophosphate, 1 mM sodium orthovanadate, and 10% glycerol plus 1:100 proteinase inhibitor cocktail III) (Calbiochem, LaJolla, Calif.) per 100 mm tissue culture. The cell lysates were cleared by centrifugation at 16,100×g for 10 minutes at 4° C. Protein concentration was determined with the BCA Protein Assay kit (Pierce, Rockfold, Ill.) according to the manufacturer's directions. Equal amount of cell extracts were resolved under denaturing conditions by electrophoresis in 8-10% polyacrylamide gels containing sodium dodecyl sulfate (SDS-PAGE), and transferred to nitrocellulose membranes by electroblotting (Schleicher & Schuell, Keene, NH). After blocking of the transferred nitrocellulose membrane with TBST (20 mM Tris pH 7.6, 150 mM NaCl, 0.1% Tween-20) supplemented with 5% non-fat milk for 1 hour at room temperature, the membrane was incubated with primary antibodies either for 1 hour at room temperature (anti-ERα, 1:100 dilution; anti-AIB1, 1:100 dilution; anti-ERK2, 1:500 dilution; anti-Cyclin D1,1:500 dilution; anti-PR, C-19, 1:200 dilution; anti-p190, 1:1000 dilution; anti-V5, 1:5000 dilution), or overnight at 4° C. (anti-phospho MAPK, 1:1000 dilution; anti-phosphor-Ser118-ERα; 1:1000 dilution; MAPK p42/44, 1:1000 dilution), incubated with secondary antibodies for 1 hour at room temperature and then developed with Enhanced Chemiluminescence Reagents (Amersham Pharmacia Biotech, Piscataway, N.J.).
MAPK activity is tightly regulated by phosphorylation and dephosphorylation. MKP3 participates in a bidirectional regulatory loop with ERK2 MAPK, whereby ERK2 substrate binding is associated with catalytic activation of MKP3, and activated MKP3 negatively regulates pERK2 (Camps et al., 1998). […] Immunoblot analysis with anti-V5 was used to detect ectopic MKP3 expression in the two MKP3 transfectants (FIG. 5A, top panel). FIGS. 5B and 5C provide quantitation of results in FIG. 5A.

ERα = assay: Immunoblot of phospho-S118 ERα and total ERα in MCF-7 transfectants; format: cell-based, human; settings: for total ERα protein level: control transfected and MKP3 overexpressing cells
Method: as §1

[2] = tested on: T47D cells overexpressing MTA2; assay: Soft agar growth of MTA2-overexpressing T47D cells; format: cell-based, human; settings: MTA2.5 and 2.8 clones compared to vector alone transfected cells
Excerpt: Metastasis associated protein 2 (MTA2), also known as PID, is contained in nucleosome remodeling and histone deacetylation (NuRD) complexes. Overexpression of MTA2 into T47D human breast cancer cells (MTA2.5 and 2.8 clones) increases the growth in soft agar in the absence of estrogen (C).

C[C@]12CC[C@@H]3c4ccc(O)cc4CC[C@H]3[C@@H]1CC[C@@H]2O [E2, 17β-Estradiol]
number of colonies in soft agar [1]: increased the number of colonies
tumor growth rate, MKP3-overexpressing versus vector control xenografts (MCF-7-MKP3 xenografts; estrogen-treated animals, P=0.52): no difference
levels of pMAPK (ERK 1,2 MAPK): lowest
total ERα protein level (ERα): Down regulation
response of soft agar growth [2]: unresponsive

CC/C(=C(\c1ccccc1)c1ccc(OCCN(C)C)cc1)c1ccccc1 [Tam, tamoxifen]
number of colonies in soft agar [1]: reduced the number of colonies
tumor growth rate, MKP3-expressing versus vector control xenografts (MCF-7-MKP3 xenografts; estrogen withdrawal plus tamoxifen citrate 500 μg/animal s.c. 5 days/week, P=0.047): significantly increased
levels of pMAPK (ERK 1,2 MAPK): highest activation of MAPK
phosphorylation at ERα serine 118 (ERα; MKP3 transfectants, 2 hours): highly induced
total ERα protein level (ERα): stabilization
response of soft agar growth [2]: unresponsive
